US20230233736A1, “ANTIMICROBIAL FORMULATIONS COMPRISING SILICONE” (AMICOAT AS, priority 2020, published 2023)
Values after ≈ are worked out from the molar mass of the structure shown. Where a SMILES comes first, the peptide text is derived from it. The star is where a group is joined. NHPhenethyl = c1ccc(CCN*)cc1

Assays:
Candida tropicalis = test: MIC microbroth dilution (CLSI); assay type: cell-based; conditions: ATCC750 - reference strain
Streptococcus pyogenes = assay type: cell-based; conditions: Macrolide (M-type) resistance clinical isolate
Source text: (§1) Cation-adjusted Mueller-Hinton broth (Oxoid Ltd., Basingstoke, UK and Trek Diagnostic Systems Ltd., East Grinstead, UK) (supplemented with 5% laked horse blood for Streptococcus spp., Corynebacterium jeikeium and Listeria monocytogenes) was used for aerobic bacteria, with an initial inoculum of approximately 10^5 colony-forming units (CFU)/m L.

[1] = system: Staphylococcus aureus, strain ATCC 25923; conditions: for MIC: S. aureus ATCC 25923; for S. aureus: Table 5, strain ATCC 25923
[2] = system: Methicillin resistant Staphylococcus epidermidis (MRSE) strain ATCC 27626; conditions: for MIC: MRSE ATCC 27626; for MRSE: Table 5, strain ATCC 27626
Cryptococcus neoformans = test: MIC microbroth dilution (CLSI); assay type: cell-based; conditions: G.R. Micro collection
Eggerthella lenta = test: MIC microbroth dilution (CLSI); assay type: cell-based; parameters: unit not given beside the values; conditions: ATCC 43055; SBB
Clostridium difficile = test: MIC microbroth dilution (CLSI); assay type: cell-based; parameters: unit not given beside the values; conditions: antibiotic-susceptible clinical isolate
Acinetobacter baumanii = test: MIC microbroth dilution (CLSI); assay type: cell-based; parameters: unit not given beside the values; conditions: antibiotic-susceptible clinical isolate
Source text: as §1

Shigella sp = test: MIC microbroth dilution (CLSI); assay type: cell-based; conditions: antibiotic-susceptible clinical isolate
Source text: as §1

Listeria monocytogenes = test: MIC microbroth dilution (CLSI); assay type: cell-based; conditions: antibiotic-susceptible clinical isolate
Source text: as §1

[3] = system: Staphylococcus saprophyticus; test: MIC microbroth dilution (CLSI); assay type: cell-based; conditions: antibiotic susceptible clinical isolate
Source text: as §1

Salmonella sp = test: MIC microbroth dilution (CLSI); assay type: cell-based
Source text: as §1

[4] = system: Stenotrophomonas maltophilia; test: MIC microbroth dilution (CLSI); assay type: cell-based; conditions: antibiotic-susceptible clinical isolate
Source text: as §1

Enterococcus gallinarum = test: MIC microbroth dilution (CLSI); assay type: cell-based; conditions: vancomycin-resistant (VanC) clinical isolate
Source text: as §1

[5] = system: Trichophyton mentagrophytes; test: MIC microbroth dilution (CLSI); assay type: cell-based; conditions: G.R. Micro collection
[6] = system: Methicillin resistant Staphylococcus aureus (MRSA) strain ATCC 33591; conditions: for MIC: MRSA ATCC 33591; for MRSA: Table 5, strain ATCC 33591
Microsporum canis = test: MIC microbroth dilution (CLSI); assay type: cell-based; conditions: G.R. Micro collection
Aspergillus niger = test: MIC microbroth dilution (CLSI); assay type: cell-based; conditions: G.R. Micro collection
[7] = system: Trichophyton interdigitale; test: MIC microbroth dilution (CLSI); assay type: cell-based; conditions: G.R. Micro collection
Bacteroides fragilis = test: MIC microbroth dilution (CLSI); assay type: cell-based; parameters: unit not given beside the values; conditions: ATCC 25285; SBB
trypsin = test: in vitro; assay type: in vitro ADME; conditions: pH 8.6
Description: Each peptide was dissolved in a 0.1 M NH4HCO3 buffer (pH 6.5) to yield a final peptide concentration of 1 mg/ml. A trypsin solution was prepared by dissolving 1 mg of trypsin in 50 ml 0.1 M NH4HCO3 buffer (pH 8.2). For the stability determination, 250 μl freshly made trypsin solution and 250 μl peptide solution were incubated in 2 ml of 0.1 M NH4HCO3 buffer (pH 8.6) at 37° C. on a rocking table. Aliquots of 0.5 ml were sampled at different time intervals, diluted with 0.5 ml water:acetonitrile (60:40 v/v) containing 1% TFA and analysed by RP-HPLC as described above. Samples without trypsin addition taken at 0 h and after 20 h at 37° C. were used as negative controls. Integration of the peak area at 254 nm for samples taken during the first 5 hours of the assay was used to generate the […].

C. albicans = test: Antimicrobial assay, Table 5; assay type: cell-based
S. pyogenes = test: Antimicrobial assay, Table 5; assay type: cell-based
E. coli = test: Antimicrobial assay, Table 5; assay type: cell-based
P. aeruginosa = test: Antimicrobial assay, Table 5; assay type: cell-based

SMILES	MIC [2] [µM]	MIC [6] [µM]	C. albicans (C. albicans) [mg/L]	S. aureus [1] [mg/L]	MRSE [2] [mg/L]	S. pyogenes (S. pyogenes) [mg/L]	MRSA [6] [mg/L]	further results
N=C(N)NCCCC(N)C(=O)NC(Cc1ccc(-c2ccc3ccccc3c2)cc1)C(=O)NC(CCCNC(=N)N)C(=O)NCCc1ccccc1 (stereo not shown) [Compound 1]	<3	<3						MIC (Candida tropicalis): 2; MIC (Streptococcus pyogenes): 32; MIC [1]: 4 µM (≈ 2.83 µg/mL); MIC (Cryptococcus neoformans): 4; MIC (Eggerthella lenta): 16; MIC (Clostridium difficile): 32; MIC (Acinetobacter baumanii): 64; MIC (Shigella sp): 32; MIC (Listeria monocytogenes): 32; MIC [3]: 1; MIC (Salmonella sp; antibiotic-susceptible clinical isolate): 16; MIC (Salmonella sp; multi-drug resistant clinical isolate): 16; MIC [4]: 64; MIC (Enterococcus gallinarum): 4; MIC [5]: 16; MIC (Microsporum canis): 8; MIC (Aspergillus niger): 4; MIC [7]: 8; MIC (Bacteroides fragilis): 64
N=C(N)NCCC[C@H](NC(=O)C(Cc1ccc(-c2cccc3ccccc23)cc1)NC(=O)[C@@H](N)CCCNC(=N)N)C(=O)NCCc1ccccc1 (stereo partly shown) [Compound 3]								half-life at 0.1 mg/ml (trypsin): 20 h
CC(C)(C)c1cc(C(C)(C)C)c2[nH]c(C(C)(C)C)c(C[C@H](NC(=O)[C@@H](N)CCCCN)C(=O)N[C@@H](CCCCN)C(=O)NCCc3ccccc3)c2c1 [Compound 4]	<2	3 (≈ 2.2 µg/mL)						half-life at 0.1 mg/ml (trypsin): > 24 h
N=C(N)NCCC[C@H](NC(=O)C(Cc1ccc(-c2ccc(-c3ccccc3)cc2)cc1)NC(=O)[C@@H](N)CCCNC(=N)N)C(=O)NCCc1ccccc1 (stereo partly shown) [Compound 5]	3 (≈ 2.2 µg/mL)	3 (≈ 2.2 µg/mL)						MIC [1]: 5 µM (≈ 3.66 µg/mL); half-life at 0.1 mg/ml (trypsin): > 24 h
N=C(N)NCCC[C@H](NC(=O)[C@H](Cc1c[nH]c2ccccc12)NC(=O)[C@@H](N)CCCNC(=N)N)C(=O)NCCc1ccccc1 [Compound 6, reference compound] (H-Arg-Trp-Arg-NHPhenethyl)	81 (≈ 50.2 µg/mL)	97 (≈ 60.1 µg/mL)						MIC [1]: 145 µM (≈ 89.9 µg/mL)
CCCCNC(=O)[C@H](CCCNC(=N)N)NC(=O)[C@H](Cc1c(C(C)(C)C)[nH]c2c(C(C)(C)C)cc(C(C)(C)C)cc12)NC(=O)[C@@H](N)CCCNC(=N)N [Compound 9]			10	2	<2	2	3	
CCCNC(=O)[C@H](CCCNC(=N)N)NC(=O)[C@H](Cc1c(C(C)(C)C)[nH]c2c(C(C)(C)C)cc(C(C)(C)C)cc12)NC(=O)[C@@H](N)CCCNC(=N)N [Compound 10]			10	2	<2	2	3	
CCCCCCCCCCCCCCCCNC(=O)[C@H](CCCNC(=N)N)NC(=O)[C@H](Cc1c(C(C)(C)C)[nH]c2c(C(C)(C)C)cc(C(C)(C)C)cc12)NC(=O)[C@@H](N)CCCNC(=N)N [Compound 11]			>100	5	4	6	4	E. coli (E. coli): >100 mg/L; P. aeruginosa (P. aeruginosa): >100 mg/L
CC(C)CNC(=O)[C@H](CCCNC(=N)N)NC(=O)[C@H](Cc1c(C(C)(C)C)[nH]c2c(C(C)(C)C)cc(C(C)(C)C)cc12)NC(=O)[C@@H](N)CCCNC(=N)N [Compound 12]			10	<2	2	2	3	
CC(C)(C)c1cc(C(C)(C)C)c2[nH]c(C(C)(C)C)c(C[C@H](NC(=O)[C@@H](N)CCCNC(=N)N)C(=O)N[C@@H](CCCNC(=N)N)C(=O)NC3CCCCC3)c2c1 [Compound 13]			10	<2	2	<2	2	
CC(C)(C)c1cc(C(C)(C)C)c2[nH]c(C(C)(C)C)c(C[C@H](NC(=O)[C@@H](N)CCCNC(=N)N)C(=O)N[C@@H](CCCNC(=N)N)C(=O)NC3CCCC3)c2c1 [Compound 14]			10	<2	<2	2	>15	
